In test [1] the test system is Prostate cell. Description: Growth inhibitory concentration dissolved in DMSO against human Prostate cell line at 10E-4 M concentration. In kind it is functional.
The test system of test [2] is Ovarian carcinoma cell. Description: Growth inhibitory concentration dissolved in DMSO against human Ovarian cell line at 10E-4 M concentration. In kind it is functional.
Test [3] relates to Breast carcinoma cell. The test is described as follows: Cytotoxic effect dissolved in DMSO against Breast cell line at 10E-4 M concentration. In kind it is functional, Homo sapiens.
Test [4] deals with Colon cell. Description: Cytotoxic effect dissolved in DMSO against Colon cell line at 10E-4 M concentration. The test is classed as functional, Homo sapiens.
In test [5] the test system is Panel NCI-60 (60 carcinoma cell lines). Description: Growth inhibitory concentration dissolved in DMSO against human MG-MID cell line at 10E-4 M concentration. The test is classed as functional.
Test [6] deals with NSCLC. Description: Growth inhibitory concentration dissolved in DMSO against human NSCLC cell line at 10E-4 M concentration. The test is classed as functional. Also on record: unit not given here.
Test [7] relates to Melanoma cell. The test is described as follows: Total growth inhibition of human Melanoma cell line at 10E-4 M concentration. In kind it is functional.
The test system of test [8] is Colon cell. The test is described as follows: Growth inhibitory concentration dissolved in DMSO against human Colon cell line at 10E-4 M concentration. The test is classed as functional.
In test [9] the test system is Melanoma cell. Description: Cytotoxic effect dissolved in DMSO against Melanoma cell line at 10E-4 M concentration. The test is classed as functional, Homo sapiens.
The subject of test [10] is Ovarian carcinoma cell. The test is described as follows: Cytotoxic effect dissolved in DMSO against Ovarian cell line at 10E-4 M concentration. The test is classed as functional, Homo sapiens.
Another test deals with Renal cell. The test is described as follows: Growth inhibitory concentration dissolved in DMSO against human Renal cell line at 10E-4 M concentration. The test is classed as functional. Set-up: unit not given here.
Test [11] deals with Melanoma cell. Description: Growth inhibitory concentration dissolved in DMSO against human Melanoma cell line at 10E-4 M concentration. The test is classed as functional.
Test [12] has as its system Panel NCI-60 (60 carcinoma cell lines). Description: Cytotoxic effect dissolved in DMSO against MG-MID cell line at 10E-4 M concentration. The test is classed as functional, Homo sapiens.
In test [13] the test system is Prostate cell. Description: Total growth inhibition of human Prostate cell line at 10E-4 M concentration. The test is classed as functional.
Test [14] deals with Ovarian carcinoma cell. The test is described as follows: Total growth inhibition of human Ovarian cell line at 10E-4 M concentration. In kind it is functional.
Test [15] has as its system Colon cell. The test is described as follows: Total growth inhibition of human Colon cell line at 10E-4 M concentration. In kind it is functional. Set-up: unit not given here.
Test [16] concerns Breast carcinoma cell. Description: Growth inhibitory concentration dissolved in DMSO against human Breast cell line at 10E-4 M concentration. In kind it is functional.
Test [17] relates to Panel NCI-60 (60 carcinoma cell lines). Description: Total growth inhibition of human MG-MID cell line at 10E-4 M concentration. In kind it is functional.
Test [18] deals with Breast carcinoma cell. Description: Total growth inhibition of human Breast cell line at 10E-4 M concentration. In kind it is functional.
In the next test the test system is CNS cell. Description: Growth inhibitory concentration dissolved in DMSO against human CNS cell line at 10E-4 M concentration. In kind it is functional.
For test [19], the system named is NSCLC. Description: Total growth inhibition of human NSCLC cell line at 10E-4 M concentration. In kind it is functional.

Values joined by “and” are separate entries in the source; they are usually repeats but may differ in a detail not shown here. Identical values can stand only once.

Take `COc1ccc2c(c1)/C(=C\c1c(C)nc3sc(C)cn13)C(=O)N2C`: in the test on Prostate cell [1], the “pGI50 (negative log molar GI50)” value amounted to 5.06. Also, the “pGI50 (negative log of GI50 in M)” value with Ovarian carcinoma cell [2] is given as 5.16. Further, the LC50 in the test on Breast carcinoma cell [3] worked out at 4.03; in the test with Colon cell [4] it was 4.09; in the test on Melanoma cell [9], 4.13; in the test on Ovarian carcinoma cell [10], 4.02; in test [12], 4.03. Besides, the GI50 worked out at 5.35 in test [5], 5.11 with NSCLC [6] and 5.32 in the test on Renal cell. Further, the TGI is 4.45 with Melanoma cell [7]; 4.1 with Prostate cell [13]; 4.42 in the test on Ovarian carcinoma cell [14]; 4.55 and 4.59 with Colon cell [15]; 4.46 in [17]; 4.87 in the test with Breast carcinoma cell [18]. The compound further returned a TGI in the test on NSCLC [19] of 4.4. Further, in the test with Colon cell [8], the “pGI50 (negative log of molar GI50)” value turned out to be 5.49. The “pGI50 (-log molar GI50)” value with Melanoma cell [11] amounted to 5.26. The “pGI50 (-log GI50, M)” value amounted to 5.6 in the test on Breast carcinoma cell [16] and 5.46 with CNS cell.
`COc1cc2c(cc1C)NC(=O)/C2=C/c1c(C)nc2sc(C)cn12`: the “pGI50 (negative log molar GI50)” value with Prostate cell [1] is 4.23. The “pGI50 (negative log of GI50 in M)” value with Ovarian carcinoma cell [2] was found to be 4.12. Further, the GI50 in test [5] was determined as 4.22; in the test with NSCLC [6], 4.24; in the test with Renal cell, 4.09. Further, the “pGI50 (negative log of molar GI50)” value with Colon cell [8] amounted to 4.21. Further, the “pGI50 (-log molar GI50)” value with Melanoma cell [11] was determined as 4.22. Further, the “pGI50 (-log GI50, M)” value in the test on Breast carcinoma cell [16] is given as 4.33; with CNS cell, 4.08.
